Reference: PMC7457602 (bioRxiv, 2020)

Target: SARS-CoV-2 3CLpro (Severe acute respiratory syndrome coronavirus 2, UniProt P0DTD1)

## O=c1c2ccccc2[se]n1-c1ccccc1 [Ebselen]
  activity in the transfection-based assay (rescue of 3CLpro induced cytotoxicity): did not observe activity
